# Results from a melting point compilation (Tetko et al.; mined from patent text by program, amines drawn as free bases though some values may be those of a salt).
row,SMILES,melting point [°C]
1,O=c1c(-c2ccccc2)c[nH]cc1-c1ccccc1,> 335
2,Nc1ccc(S(=O)(=O)c2cc(-c3cccc(C(F)(F)F)c3)nc(N3CCCC3)c2)cc1,219 to 220
3,Cc1nnc(NCc2ccccc2)s1,140
4,CC(C)NC(=O)Nc1ccc([N+](=O)[O-])cc1O,160 to 161
5,COc1ccc(/C=C(\C#N)c2ccccc2[N+](=O)[O-])cc1OC1CCCC1,95.5 to 97
6,CC(C)n1cc2c3c(cccc31)C1CC(C(=O)NCCc3c[nH]cn3)CN(C)C1C2 (centres undefined),83 to 86
7,Cc1ccc(Cl)c(Nc2ccccc2-c2noc(=O)[nH]2)c1Cl,209 to 210
8,Cc1ccc(-c2nc(=O)c3ccccc3s2)n1C,194 to 196
9,O=C1C(=O)N(c2cccc(C(F)(F)F)c2)C(=O)N1c1ccccc1,116
10,O=c1c2cc(F)c(N3CCCC3)nc2n(-c2ccccc2F)c(=O)n1O,> 250
11,COc1ccc(CN2C(=O)CCC2C(=O)O)cc1 (centres undefined),103 to 104
12,Cc1c(-c2ccccc2)oc2c(C(=O)NCCCN3CCN(c4cccc5c4OCC5)CC3)cccc2c1=O,94 to 95
13,O=NN(CC(=O)O)C([PH](=O)Oc1ccccc1)[PH](=O)Oc1ccccc1 (centres undefined),40 to 44
14,CN(N)c1ncnc2c1cnn2C,213 to 215
15,Cn1cc(C#N)c([N+](=O)[O-])n1,85 to 87
16,O=C(O)CC(c1ccccc1)N1CC(NC(=O)C(=NO)c2ccccc2)C1=O (centres undefined),157 to 158
17,O=[N+]([O-])c1c(Cl)c(Cl)cc2nc(Cl)c(Cl)nc12,118 to 120
18,O=C(O)c1ccc2c(c1)OCC(=O)N2Cc1ccccc1,230
19,CSC(=S)C1(c2ccccn2)OCCCS1 (centres undefined),116
20,CCN(CC)CCN1CCN(c2ccc(N3C[C@H](CNC(C)=O)OC3=O)cc2F)CC1,131 to 133
21,Clc1nc(Cl)nc(-c2ccccc2)n1,118 to 120
22,COc1nc2cc([N+](=O)[O-])c(C)c(C(=O)N3CCCNCC3)c2nc1OC,141 to 143
23,CSC1=Nc2ccccc2Sc2nccn21,116 to 118
24,Nc1cc(Br)nc(Cl)c1OC(F)F,138 to 140
25,Cc1cc(C)nc(-n2cnc(N)n2)n1,235 to 238
26,Cc1c(S(C)(=O)=O)ccc(C(=O)C2SCCCC2=O)c1Cl (centres undefined),142 to 144

# The remaining lines, values ahead:
row,melting point [°C],SMILES
1,110 to 112,CC(C)(Sc1cc(C(C)(C)C)c(O)c(C(C)(C)C)c1)Sc1cc(C(C)(C)C)c(OCC[C@H](O)CO)c(C(C)(C)C)c1
2,65 to 68,COC(=O)C(CC(C)C)NC(=O)C(C)NC(=O)OCc1ccccc1 (centres undefined)
3,155 to 157,COC(=O)COc1ccc(C(=O)CN2CCN(c3ccnc(C)c3)CC2)cc1
4,66 to 68,COc1cc(C=C2C(=O)CCc3c2ccc2c3OCO2)c([N+](=O)[O-])cc1OC
5,162 to 165,Cc1nc(C)c(Cl)c(NCc2nccc(CNCCO)c2Cl)n1
6,120 to 121,CC(C)=NOCCCn1cnc2c(N)nc3cccnc3c21
7,214 to 216,CC(C)OC(=O)c1cc(-n2c(=O)[nH]c3c(c2=O)CCC3)c(F)cc1Br
8,70,CN1CCN(C(=O)CCC(=O)N[C@@H]2CN3C(=O)N(c4cc(Cl)nc(Cl)c4)C(=O)[C@@]3(Cc3ccc(OC(F)(F)F)cc3)C2)CC1
9,142 to 149,C#CCn1c2ccccc2c2cc(Br)ccc21
10,246,CCOC(=O)c1c(N2CCN(C(=O)c3ccco3)CC2)c2sccc2n(CC(=O)c2ccccc2)c1=O
11,93 to 95,CCc1cc(OCc2ccc(-c3ccccc3-c3nnn(C(c4ccccc4)(c4ccccc4)c4ccccc4)n3)cc2)c2c(n1)CCCN2C(=O)C(F)(F)F
12,231,CN(CCO)S(=O)(=O)c1cc(NC(=O)c2cnn3c(C(F)F)cc(-c4ccc(C(F)(F)F)cc4)nc23)c(Cl)s1
13,190 to 191,CCOC(=O)C1=C(C(OC)OC)Nc2nccn2C1c1cccc([N+](=O)[O-])c1 (centres undefined)
